These results are taken from US20230158025A1 (UNIVERSITY OF UTAH RESEARCH FOUNDATION, priority 2020, published 2023).

Structures are written as SMILES. Read-outs that look alike come from different tables or passages of the source.

One data set deals with recombinant human GALK1 (Homo sapiens, UniProt P51570). As to the kind of experiment: hGALK1 biochemical activity assay (Kinase-Glo Plus, ATP depletion). The settings on record: recombinant human GALK1, Kinase-Glo Plus ATP depletion; read-out: hGALK. Put shortly: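 Recombinant human or mouse GALK1 (5 nM, with 100 μM galactose, in the added enzyme solution) was run with ATP (35 μM in the substrate solution) in HEPES pH 8.0 buffer. Compounds were tested at 11 1/3-step concentrations from 57.4 μM to 0.97 nM. After 1 h at room temperature, remaining ATP was read by Kinase-Glo Plus luminescence.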
Sequence of recombinant human GALK1 (P51570 whole entry): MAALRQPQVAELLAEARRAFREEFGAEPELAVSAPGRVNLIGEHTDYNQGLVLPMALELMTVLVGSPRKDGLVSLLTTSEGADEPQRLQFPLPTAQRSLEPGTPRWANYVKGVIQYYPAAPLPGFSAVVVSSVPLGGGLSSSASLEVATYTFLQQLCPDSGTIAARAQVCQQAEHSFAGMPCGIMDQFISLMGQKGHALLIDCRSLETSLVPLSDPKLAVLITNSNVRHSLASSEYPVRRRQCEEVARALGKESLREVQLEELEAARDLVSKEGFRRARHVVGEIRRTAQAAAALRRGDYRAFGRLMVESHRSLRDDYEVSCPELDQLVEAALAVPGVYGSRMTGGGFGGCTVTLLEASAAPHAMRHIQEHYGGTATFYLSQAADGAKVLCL

In the next data set the target is recombinant mouse GALK1 (Mus musculus, UniProt Q9R0N0). As to the kind of experiment: mGALK1 biochemical activity assay (Kinase-Glo Plus, ATP depletion). The method in brief: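 Recombinant GALK1 (5 nM) with 100 μM galactose; GALK1 turnover read as ATP depletion by Kinase-Glo Plus luminescence. Reaction ran 1 h at room temperature before detection reagent was added.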
Sequence of recombinant mouse GALK1 (Q9R0N0 whole entry): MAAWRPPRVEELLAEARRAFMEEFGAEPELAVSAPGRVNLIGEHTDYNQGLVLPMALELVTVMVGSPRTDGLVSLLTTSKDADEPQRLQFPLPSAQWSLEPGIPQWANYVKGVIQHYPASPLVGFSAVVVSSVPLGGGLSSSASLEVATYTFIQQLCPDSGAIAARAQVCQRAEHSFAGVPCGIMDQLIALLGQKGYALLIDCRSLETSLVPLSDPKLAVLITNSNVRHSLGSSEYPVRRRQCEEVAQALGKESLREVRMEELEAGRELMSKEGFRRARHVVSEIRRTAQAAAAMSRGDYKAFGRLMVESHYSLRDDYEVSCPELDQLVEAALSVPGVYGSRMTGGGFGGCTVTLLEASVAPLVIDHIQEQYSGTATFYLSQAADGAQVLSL
In general terms: Kinase-Glo reads ATP consumption through a luciferase reaction.

The next data set has as its target T1, hGALK1m (Homo sapiens, UniProt P51570, E253A/K252A).
T1 construct: made in house; host or cells: E. coli HMS174
In words: in vitro hGALK1 activity assay of the structure-based optimisation (Example 12, Tables 17-20). The class given is biochemical.

The conditions of data set [1]: rat.
The conditions of data set [2]: PAMPA.
Data set [3] is described as follows: in vitro. The settings on record: rat, microsomes.
A short description of data set [4]: in vitro. The settings on record: PAMPA, ADME P: PAMPA permeability (class).

T1 sequence (P51570 whole entry K252A/E253A): as the sequence (P51570 whole entry) above, with K252A, E253A counted along it

On to `CC1=C(C(=O)Nc2cc(C(=O)O)ccn2)C(c2ccccc2Cl)N=C(Nc2nc3cc(Cl)ccc3o2)N1` (stereo not drawn) [Compound 9, 2-(2-((5-chlorobenzo[d]oxazol-2-yl)amino)-4-(2-chlorophenyl)-6-methyl-1,4-dihydropyrimidine-5-carboxamido)isonicotinic acid], for which the IC50 at recombinant human GALK1 is 2.43 µM; at recombinant mouse GALK1 (Tables 2-15, 35 μM ATP, 100 μM galactose, 1 h, bracketed figure after some values is undefined and not reported, read-out: mGALK IC50), 6.11 µM; on recombinant mouse GALK1 (recombinant mouse GALK1, Kinase-Glo Plus ATP depletion, read-out: mGALK), 6.11 µM; against hGALK1m (Tables 18-19 and text of Example 12), 1.7 µM. Moreover, the Emax at hGALK1m (Tables 18-19, read-out: Max Response (%)) is 100%. Besides, in data set [1], the “Metab. Stabil. (m)” value is above 30 m. Besides, the “Perm. (1 × 10^−6 cm/sec)” value in data set [2] is on record as <1 1 × 10^−6 cm/sec. The half-life (as a rule, the time needed for the level to fall by half in the phase considered) in “in vitro [3]” was below 10 min. Besides, the Papp (as a rule, a coefficient for how fast a substance crosses the barrier) in “in vitro [4]” is below 10 ×10⁻⁶ cm/s.
